Reference: US20050123936A1, “Method, composition, and kit to design, evaluate, and/or test compounds that modulate regulatory factor binding to nucleic acids” (priority 2003, published 2005)
Ends that are not written are not given here. Hoechst 33258 analog = not defined here

Columns and labels:
[1] = molecular target: TGGTCA matched site on 250-bp EcoRI/PvuII restriction fragment from plasmid pDEH9; assay: Quantitative DNase I footprint titration, matched site; assay type: binding; conditions: 12 h at 22° C., TKMC buffer pH 7.0, read-out: Equilibrium Dissociation Constants Kd, TGGTCA
Procedure: (§1) Quantitative DNaseI footprinting can be used to determine the equilibrium association constants for binding to match and mismatch sites. Footprinting experiments are generally performed on 3′- and/or 5′-^32P end restriction fragments derived from plasmids. 3′-shifted cleavage patterns are consistent with location of the polyamide in the minor groove. Typical reaction conditions are: 10 mM Tris-HCl, 10 mM KCl, 10 mM MgCl2, 5 mM CaCl2, pH 7.0, and 22° C. See Brenowitz et al. (1986). Methods Enzymol. 130:132-181; Fox & Waring (1984) Nucleic Acids Res. 12:9271-9285; and Brenowitz et al. (1986) Proc. Natl. Acad. Sci. U.S.A. 83: 8462-8466.
DNase I Footprinting: Dissociation constants for the DNA binding of compounds 1, 2 and 3 were obtained following published protocols. All reactions were carried out in 400 μL total volume employing 20 kcpm of a 3′-radiolabelled 250-bp restriction fragment from the plasmid pDEH9 (FIG. 1a) (SEQ. ID. NO: 4). […]
FIGS. 1b, 1c, and 1d are quantitative DNAse I footprint titration experiments for compounds 1, 2 and 3 on the 3′^−32 P-labeled 250-bp EcoRI/PvuII restriction fragment from the plasmid pDEH9. […]
The DNA-binding properties of the compounds 1-3 were investigated by quantitative DNase 1 footprinting assays. […]

[2] = test system: TGGCCA mismatch site on 250-bp EcoRI/PvuII restriction fragment from plasmid pDEH9; assay: Quantitative DNase I footprint titration, mismatch site TGGCCA; assay type: binding
Procedure: as §1
(§2) DNase I Footprinting: Dissociation constants for the DNA binding of compounds 1, 2 and 3 were obtained following published protocols. All reactions were carried out in 400 μL total volume employing 20 kcpm of a 3′-radiolabelled 250-bp restriction fragment from the plasmid pDEH9 (FIG. 1a) (SEQ. ID. NO: 4). No carrier DNA was used in the equilibration, and the solutions were allowed to equilibrate for 12 h at 22° C. in TKMC buffer (10 mM TRIS, 10 mM KCl, […], 5 mM CaCl2 pH 7.0) prior to the DNase I digestion. Reaction products (8 kcpm) were resolved on denaturing 8% polyacrylamide sequencing gels run at 55 W.
(§3) FIGS. 1b, 1c, and 1d are quantitative DNAse I footprint titration experiments for compounds 1, 2 and 3 on the 3′^−32 P-labeled 250-bp EcoRI/PvuII restriction fragment from the plasmid pDEH9. Lane 1: Intact DNA. Lane 2: A-reaction. Lane 3: G-reaction. Lane 4: DNAse 1 standard.
(§4) The DNA-binding properties of the compounds 1-3 were investigated by quantitative DNase 1 footprinting assays. The equilibrium binding constants of each of the compounds for a matched versus three single base pair mismatch sites is compiled in Table 1. The lower strand sequence is shown in the header. Mismatched base pairs are underlined. The residue under the YPWM peptide is in bold. Relative specificities are given in square brackets.

[3] = test system: TGGGCA mismatch site on 250-bp EcoRI/PvuII restriction fragment from plasmid pDEH9; assay: Quantitative DNase I footprint titration, mismatch site TGGGCA; assay type: binding
Procedure: as §1, §2, §3, §4

[4] = test system: AGCTCA mismatch site on 250-bp EcoRI/PvuII restriction fragment from plasmid pDEH9; assay: Quantitative DNase I footprint titration, mismatch site AGCTCA; assay type: binding
Procedure: as §1, §2, §3, §4

[5] = molecular target: T1, extradenticle (Exd) protein (residues 238-324) (Drosophila melanogaster, UniProt P40427); assay: EMSA: recruitment of Exd to its cognate DNA site by polyamides 1-3; assay type: binding; conditions: saturating 50 nM compound, Exd 0-100 nM
T1 construct: comprising the homeodomain and the extended fourth helix (residues 238-324); made in house
T1 sequence (P40427 238-324): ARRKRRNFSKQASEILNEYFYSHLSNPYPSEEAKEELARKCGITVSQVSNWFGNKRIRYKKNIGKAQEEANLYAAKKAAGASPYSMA
Source text: (§5) Protein expression: Drosophila extradenticle (Exd) protein comprising the homeodomain and the extended fourth helix (residues 238-324), as well as ultrabithorax (Ubx) protein homeodomain (residues 233-313 of the Ubx isoform IVa) were expressed and purified after Passner & Aggarwal. The purified proteins Exd and Ubx were used for EMSA studies as described below.
(§6) For the templates, the DNA oligonucleotides depicted in FIGS. 2a, 2b, 2c, and 2d were used, SEQ. ID NOS: 5, 6, 7, and 8, respectively. The DNA upper strand was annealed with the respective matching lower strand and both strands were 5′-labeled with γ-^32P-ATP and polynucleotide kinase, using standard procedures.
Gel-shift experiments: The master mix contained 50% BSA/50% glycerol, reaction buffer (150 mM potassium glutamate, 50 mM HEPES pH 7.0, 1 mM DTT, and 5′-end labeled DNA (^32P) The final concentrations in the samples were 100 ng/μL BSA and 10% glycerol. Polyamides were kept in subdued lighting whenever possible. Upon addition of the polyamide to 1 pM DNA, the samples were incubated at 25 °C. for 30 minutes in a 20 μL reaction. Next, Exd was added to the samples and incubated for 1 hour at 4° C. A 9% acrylamide/3% glycerol gel was pre-run for 15 min prior to loading. In each lane 15 μL of a 20 μL reaction were loaded while the gel was running to prevent the samples from being diluted. The gels were run at 4° C./185 V. Gels were dried, exposed to a phosphorimager screen, and visualized using a Molecular Dynamics phosphorimager.
FIGS. 3a and 3b: EMSA studies with polyamides 1-3, Exd and Ubx. In FIG. 3a, each polyamide binds and decreases the mobility of free DNA (lanes 2-18). […] In lanes 2-6,8-12, 14-18, Exd was added in following concentrations: 0, 3, 10, 30, 100 nM. Lanes 19 and 20 contained DNA bearing the Exd-Ubx binding site that was used in X-ray crystal structure determination (see methods above for sequence). In the reaction shown in lane 20, 275 nM Ubx and 30 nM Exd were incubated with DNA. […]

[6] = test system: DNA duplex templates (FIG. 2a optimal; FIG. 2c mismatch in PA binding site); assay: EMSA: binding of polyamides to the DNA duplex templates; conditions: even at 100 nM concentrations
Source text: as §6
FIGS. 2a, 2b, 2c and 2d show depict the DNA duplexes used for the EMSA studies. The binding site for the Exd protein is marked by a box, the polyamide or Hox protein binding site is shown in boldface, FIG. 2a depicts the optimal template. FIG. 2b depicts a 2-bp mismatch in the Exd site. FIG. 2c depicts a 2-hp mismatch in the PA binding site. FIG. 2d depicts a composite Ubx-Exd binding site (see Passner et al. (1999) Nature, 397:714-719). […]

[7] = molecular target: T2, Exd (Drosophila melanogaster, UniProt P40427); assay: Example 7 EMSA: recruitment of Exd by linker compounds; assay type: binding
T2 construct: comprising the homeodomain and the extended fourth helix (residues 238-324); made in house
T2 sequence (P40427 238-324): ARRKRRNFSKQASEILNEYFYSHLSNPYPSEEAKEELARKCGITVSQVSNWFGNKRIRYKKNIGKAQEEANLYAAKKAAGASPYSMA
Procedure: The assays were performed with 50 nM of the conjugate pre-incubated with target DNA (thus to bind the anchor moiety to the target nucleic acid) followed by the addition and incubation with Exd.
To determine the effects of longer linker on binding, the ability of compounds using linkers 1, 2 and 4 to recruit Exd at three different temperatures was investigated.

[8] = test system: double-stranded DNA; conditions: Behrens et al. (2001); cited from earlier work
[9] = molecular target: Ultrabithorax (Ubx) homeodomain, isoform IVa (Drosophila, UniProt P83949-5 P83949-5:233-313); assay: EMSA; Ubx alone; 150 mM K glutamate, 50 mM HEPES pH 7.0, 4 C; conditions: label: 5'-32P both strands
Sequence of Ultrabithorax (Ubx) homeodomain, isoform IVa (P83949 other isoform, or with tags, fused parts or gaps): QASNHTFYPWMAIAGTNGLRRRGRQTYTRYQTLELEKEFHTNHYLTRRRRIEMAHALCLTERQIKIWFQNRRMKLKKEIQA
Procedure: Gel-shift studies with the Ubx protein were performed under identical buffer conditions using the duplex oligonucleotide listed in FIG. 2d. Ubx was added to the reaction mixture containing ³²P-endlabeled duplex DNA and incubated at 4° C. for 30 min. […] The complexes were resolved under similar gel conditions as those described for DNA-polyamide-Exd complexes above.

[10] = test system: duplex DNA with composite Ubx-Exd binding site (FIG. 2d); assay: EMSA: Ubx binding to its cognate DNA
Procedure: (§7) Gel-shift studies with the Ubx protein were performed under identical buffer conditions using the duplex oligonucleotide listed in FIG. 2d. Ubx was added to the reaction mixture containing ^32P-endlabeled duplex DNA and incubated at 4° C. for 30 min. Subsequently Exd was added and the reaction was further incubated for 60 min at 4° C. The complexes were resolved under similar gel conditions as those described for DNA-polyamide-Exd complexes above. […] Under saturating concentrations of Ubx (325 nM) the Kd of Exd for the binary [Ubx-DNA] complex was 2-3 fold larger than the affinity of Exd for the polyamide-DNA binary complex.

[11] = molecular target: T3, extradenticle (Exd) protein (Drosophila melanogaster, UniProt P40427); assay: EMSA: Exd binding to the binary Ubx-DNA complex; conditions: saturating concentrations of Ubx (325 nM)
T3 construct: comprising the homeodomain and the extended fourth helix (residues 238-324); made in house
T3 sequence (P40427 238-324): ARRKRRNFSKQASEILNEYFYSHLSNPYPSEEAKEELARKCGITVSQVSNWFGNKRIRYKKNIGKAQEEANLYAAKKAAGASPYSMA
Procedure: as §5, §7

[12] = relative to matched site TGGTCA

With Cmpd 2 (FYPWMKG) the Kd [1] was 5.8 ± 0.8 nM, the “Relative specificity (square brackets), TGGCCA” value [2, 12] was 1.4 and the Kd ([2]; single base pair mismatch site, 22° C., TKMC buffer, read-out: Equilibrium Dissociation Constants Kd, TGGCCA) was 7.9 ± 1.6 nM. The “Relative specificity (square brackets), TGGGCA” value [3, 12] was 17, the Kd ([3]; single base pair mismatch site, 22° C., TKMC buffer, read-out: Equilibrium Dissociation Constants Kd, TGGGCA) was no less than 0.1 nM and the “Relative specificity (square brackets), AGCTCA” value [4, 12] was 1.1. For the same molecule, the Kd ([4]; single base pair mismatch site, 22° C., TKMC buffer, read-out: Equilibrium Dissociation Constants Kd, AGCTCA) was 6.4 ± 1.1 nM, the “ability to recruit Exd to its cognate DNA site (Exd binding)” value ([5]; listed as Compound 2) was “capable of recruiting Exd to DNA” and the “ability to recruit Exd to its cognate DNA site (Exd binding)” value ([5]; listed as compound 2) was “binds DNA with very high affinity”. For the same molecule, the “binding to mutated template (polyamide-binding site eliminated)” value [6] was “did not bind”, the “ability to recruit Exd” value ([7]; physiological temperatures (37° C.)) was “fails to do so effectively” and the “ability to recruit Exd” value ([7]; room temperature (23° C.)) was “capable of recruiting Exd”.

For “Hoechst 33258 analog-KSPKKAKK polypeptide: Hoechst 33258 analog bonded to the N-terminus of the cationic polypeptide KSPKKAKK (Behrens et al.) ({Hoechst 33258 analog}-KSPKKAKK; reading uncertain)”, the “higher affinity for double-stranded DNA than the Hoechst analog itself” value [8] is given as “approximately 10 fold”.

B1: Composite Ubx-Exd EMSA duplex (FIG. 2d) (dsDNA)
DNA 1: GATCTCCCGGCGAATGATTTATGGTATCGGCGCCACTGTCACCCGGA
DNA 2: TCCGGGTGACAGTGGCGCCGATACCATAAATCATTCGCCGGGAGATC
Work on B1 yielded a Kd [9] of 200 nM.

B2: Ubx: Drosophila ultrabithorax (Ubx) protein homeodomain (residues 233-313 of the Ubx isoform IVa) (protein, UniProt P83949 233-313, looked up, fragment)
chain: QASNHTFYPWMAIAGECPEDPTKSKIRSDLTQYGGISTDMGKRYSESLAGSLLPDWLGTNGLRRRGRQTYTRYQTLELEKE
modifications: isoform IVa
For B2, the “affinity of Ubx for its DNA site lower than that of compound 2 for its respective site” value [10] was no less than 40 fold, the Kd ([10]; 4° C.) was 200 ± 25 nM and the “Kd of Exd for the binary [Ubx-DNA] complex, larger than for the polyamide-DNA binary complex” value [11] was 2-3 fold.
